According to article PMC11960070 (Microbiology Spectrum, 2025):
Where no end group is shown, it is not given here.

What was measured:
[1] = test system: B. burgdorferi seropositive serum samples; test: MIA: Lyme disease-positive human serum IgG binding to Ala-substituted 130–150 peptides; conditions: n = 26 sera, 1:100
mAb 8C1 = test: MIA: 8C1 reactivity with OspC-derived peptides / alanine scan

Substance | Effect of Ala substitution on peptide recognition by human serum samples [1] | 8C1 reactivity with OspCA peptide (mAb 8C1)
D144: 130–150 peptide with single Ala substitution at D144 (CSETFTNKLKEKHTALGKEGV; also: biotinylated, site not given here; UniProt Q07337 130-150, looked up, variant D144A) | negatively affected | –
E140: 130–150 peptide with single Ala substitution at E140 (CSETFTNKLKAKHTDLGKEGV; also: biotinylated, site not given here; UniProt Q07337 130-150, looked up, variant E140A) | negatively affected | –
130–150: OspCA-derived peptide composed of residues 130-150 (CSETFTNKLKEKHTDLGKEGV; UniProt Q07337 130-150, looked up, fragment) | – | reacted strongly
